For this assay, the target named is human FXR (NR1H4) (Homo sapiens (Human), UniProt Q96RI1). The assay is described as follows: Human FXR (NR1H4) Assay (Gal4 promoter driven luciferase reporter, Indigo Bioscience kit).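 For Efficacy (%): 100% equals the efficacy of CDCA; efficacy normalized to CDCA set as 100%.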 The assay is classed as cell-based. The following applies: for EC50: Human FXR (NR1H4) Assay, potency ranges; for Emax: read-out: Efficacy (%). Put shortly: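 CHO reporter cells expressing human FXR with an FXR-responsive luciferase reporter, treated with compound doses at 0.2% DMSO. Incubation lasted 22 h at 37 °C before luciferase detection reagent was added. Luminescence was then read.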
Chain of human FXR (NR1H4) (Q96RI1 whole entry, the tested form may be a part): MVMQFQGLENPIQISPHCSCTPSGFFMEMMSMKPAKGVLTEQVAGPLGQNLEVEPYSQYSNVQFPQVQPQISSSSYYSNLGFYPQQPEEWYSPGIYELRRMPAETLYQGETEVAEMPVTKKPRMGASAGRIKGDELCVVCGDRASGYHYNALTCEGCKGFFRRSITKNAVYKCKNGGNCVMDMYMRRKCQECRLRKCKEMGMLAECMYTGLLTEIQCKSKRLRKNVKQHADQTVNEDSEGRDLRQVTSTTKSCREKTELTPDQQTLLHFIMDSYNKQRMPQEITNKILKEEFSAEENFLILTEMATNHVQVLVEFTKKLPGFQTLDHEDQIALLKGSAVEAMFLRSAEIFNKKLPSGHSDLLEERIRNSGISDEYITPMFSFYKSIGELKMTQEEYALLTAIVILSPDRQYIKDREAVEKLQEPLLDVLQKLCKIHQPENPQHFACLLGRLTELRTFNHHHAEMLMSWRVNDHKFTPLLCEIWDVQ

This is an account of results in patent publication US10457703B2, “Bile acid derivatives as FXR/TGR5 agonists and methods of use thereof” (ENANTA PHARMACEUTICALS, INC., priority 2015, dated 2019).

By EC50 is commonly meant the concentration giving half of the maximal effect. Low values mean higher potency in that assay, high ones lower potency in that assay.

Consider `CCCCCNC(=O)OCC[C@@H](C)[C@H]1CC[C@H]2[C@@H]3[C@H](O)[C@H](CC)[C@@H]4C[C@H](O)CC[C@]4(C)[C@H]3CC[C@]12C` [Example 150], for which the EC50 was in the range of 0.1 to 1 µM and the Emax worked out at 303%.

As to `CC[C@H]1[C@@H](O)[C@@H]2[C@H](CC[C@]3(C)[C@@H]([C@H](C)CCOC(=O)NCCN4CCOCC4)CC[C@@H]23)[C@@]2(C)CC[C@@H](O)C[C@@H]12` [Example 151], the 50% effective concentration (EC50) was 0.1 to 1 µM and the Emax turned out to be 253%.

`CC[C@H]1[C@@H](O)[C@@H]2[C@H](CC[C@]3(C)[C@@H]([C@H](C)CCOC(=O)NCCCN4CCOCC4)CC[C@@H]23)[C@@]2(C)CC[C@@H](O)C[C@@H]12` [Example 152]: the EC50 fell in the range of 0.1 to 1 µM and the Emax stood at 276%.

As for `CC[C@H]1[C@@H](O)[C@@H]2[C@H](CC[C@]3(C)[C@@H]([C@H](C)CCOC(=O)NCCO)CC[C@@H]23)[C@@]2(C)CC[C@@H](O)C[C@@H]12` [Example 153], the EC50 fell in the range of 0.1 to 1 µM and the Emax worked out at 230%.

For `CC[C@H]1[C@@H](O)[C@@H]2[C@H](CC[C@]3(C)[C@@H]([C@H](C)CCOC(=O)N[C@H](C(=O)OC)C(C)C)CC[C@@H]23)[C@@]2(C)CC[C@@H](O)C[C@@H]12` [Example 154], the EC50 was 0.1 to 1 µM and the Emax is 138%.

Take `CC[C@H]1[C@@H](O)[C@@H]2[C@H](CC[C@]3(C)[C@@H]([C@H](C)CCOC(=O)N[C@H](C(=O)O)C(C)C)CC[C@@H]23)[C@@]2(C)CC[C@@H](O)C[C@@H]12` [Example 155]: the EC50 was in the range of 0.1 to 1 µM and the Emax was 278%.

`CCOC(=O)CNC(=O)OCC[C@@H](C)[C@H]1CC[C@H]2[C@@H]3[C@H](O)[C@H](CC)[C@@H]4C[C@H](O)CC[C@]4(C)[C@H]3CC[C@]12C` [Example 156]: the EC50 was 0.1 to 1 µM and the Emax was found to be 193%.

In the case of `CC[C@H]1[C@@H](O)[C@@H]2[C@H](CC[C@]3(C)[C@@H]([C@H](C)CCOC(=O)NCC(=O)O)CC[C@@H]23)[C@@]2(C)CC[C@@H](O)C[C@@H]12` [Example 157], the half-maximal effective concentration (EC50) lay within 1 to 10 µM and the Emax was 178%.

Consider `CC[C@H]1[C@@H](O)[C@@H]2[C@H](CC[C@]3(C)[C@@H]([C@H](C)CCOC(=O)NCc4ccc(O)cc4)CC[C@@H]23)[C@@]2(C)CC[C@@H](O)C[C@@H]12` [Example 158], for which the EC50 lay within 0.1 to 1 µM and the Emax came out at 240%.

As for `CC[C@H]1[C@@H](O)[C@@H]2[C@H](CC[C@]3(C)[C@@H]([C@H](C)CCOC(=O)NCc4ccc(C(=O)O)cc4)CC[C@@H]23)[C@@]2(C)CC[C@@H](O)C[C@@H]12` [Example 159], the EC50 lay in the range of 0.1 to 1 µM and the Emax worked out at 221%.

Regarding `CC[C@H]1[C@@H](O)[C@@H]2[C@H](CC[C@]3(C)[C@@H]([C@H](C)CCOC(=O)N4CCOCC4)CC[C@@H]23)[C@@]2(C)CC[C@@H](O)C[C@@H]12` [Example 160], the EC50 was in the range of 0.1 to 1 µM and the Emax came to 142%.

As to `CC[C@H]1[C@@H](O)[C@@H]2[C@H](CC[C@]3(C)[C@@H]([C@H](C)CCOC(=O)N4CCC(Cc5ccccc5)CC4)CC[C@@H]23)[C@@]2(C)CC[C@@H](O)C[C@@H]12` [Example 161], the half-maximal effective concentration (EC50) lay in the range of 0.1 to 1 µM and the Emax is 226%.

Take `CC[C@H]1[C@@H](O)[C@@H]2[C@H](CC[C@]3(C)[C@@H]([C@H](C)CCOC(=O)N4CCC4)CC[C@@H]23)[C@@]2(C)CC[C@@H](O)C[C@@H]12` [Example 162]: the EC50 was in the range of 0.1 to 1 µM and the Emax turned out to be 277%.

For `CC[C@H]1[C@@H](O)[C@@H]2[C@H](CC[C@]3(C)[C@@H]([C@H](C)CCOC(=O)N(CC)CC)CC[C@@H]23)[C@@]2(C)CC[C@@H](O)C[C@@H]12` [Example 163], the 50% effective concentration (EC50) fell in the range of 0.1 to 1 µM and the Emax was 266%.

Turning to `CC[C@H]1[C@@H](O)[C@@H]2[C@H](CC[C@]3(C)[C@@H]([C@H](C)CCOC(=O)N(C)OC)CC[C@@H]23)[C@@]2(C)CC[C@@H](O)C[C@@H]12` [Example 164], the EC50 lay in the range of 0.1 to 1 µM and the Emax came to 191%.

For the compound `CC[C@H]1[C@@H](O)[C@@H]2[C@H](CC[C@]3(C)[C@@H]([C@H](C)CCCOC(=O)N4CCCCC4)CC[C@@H]23)[C@@]2(C)CC[C@@H](O)C[C@@H]12` [Example 165], the EC50 fell in the range of 1 to 10 µM and the Emax came out at 158%.

`CC[C@H]1[C@@H](O)[C@@H]2[C@H](CC[C@]3(C)[C@@H]([C@H](C)CCOC(=O)Nc4ccc(C(C)(C)C)cc4)CC[C@@H]23)[C@@]2(C)CC[C@@H](O)C[C@@H]12` [Example 166]: the EC50 is 1 to 10 µM and the Emax is 30%.

For the compound `CC[C@H]1[C@@H](O)[C@@H]2[C@H](CC[C@]3(C)[C@@H]([C@H](C)CCOC(=O)NC4CCS(=O)(=O)CC4)CC[C@@H]23)[C@@]2(C)CC[C@@H](O)C[C@@H]12` [Example 167], the EC50 lay in the range of 0.1 to 1 µM and the Emax was found to be 321%.

`CC[C@H]1[C@@H](O)[C@@H]2[C@H](CC[C@]3(C)[C@@H]([C@H](C)CCOC(=O)N[C@H]4CCCC[C@@H]4O)CC[C@@H]23)[C@@]2(C)CC[C@@H](O)C[C@@H]12` [Example 168]: the concentration for a half-maximal effect (EC50) lay in the range of 0.1 to 1 µM and the Emax is 302%.

Turning to `CC[C@H]1[C@@H](O)[C@@H]2[C@H](CC[C@]3(C)[C@@H]([C@H](C)CCOC(=O)N4CCC(O)CC4)CC[C@@H]23)[C@@]2(C)CC[C@@H](O)C[C@@H]12` [Example 169], the EC50 lay in the range of 0.1 to 1 µM and the Emax stood at 257%.

In the case of `CC[C@H]1[C@@H](O)[C@@H]2[C@H](CC[C@]3(C)[C@@H]([C@H](C)CCOC(=O)N4CCN(c5ccccc5OC)CC4)CC[C@@H]23)[C@@]2(C)CC[C@@H](O)C[C@@H]12` [Example 170], the concentration giving a half-maximal response (EC50) was < 0.1 µM and the Emax worked out at 283%.

As to `CC[C@H]1[C@@H](O)[C@@H]2[C@H](CC[C@]3(C)[C@@H]([C@H](C)CCOC(=O)N4CCC(C(N)=O)CC4)CC[C@@H]23)[C@@]2(C)CC[C@@H](O)C[C@@H]12` [Example 171], the EC50 is 0.1 to 1 µM and the Emax came out at 179%.

Consider `CC[C@H]1[C@@H](O)[C@@H]2[C@H](CC[C@]3(C)[C@@H]([C@H](C)CCOC(=O)N[C@H](C)CCO)CC[C@@H]23)[C@@]2(C)CC[C@@H](O)C[C@@H]12` [Example 172], for which the EC50 fell in the range of 0.1 to 1 µM and the Emax was 201%.

As for `CC[C@H]1[C@@H](O)[C@@H]2[C@H](CC[C@]3(C)[C@@H]([C@H](C)CCOC(=O)N4CCc5sccc5C4)CC[C@@H]23)[C@@]2(C)CC[C@@H](O)C[C@@H]12` [Example 173], the half-maximal effective concentration (EC50) was in the range of 0.1 to 1 µM and the Emax was 209%.

On to `CC[C@H]1[C@@H](O)[C@@H]2[C@H](CC[C@]3(C)[C@@H]([C@H](C)CCOC(=O)NCCCCCO)CC[C@@H]23)[C@@]2(C)CC[C@@H](O)C[C@@H]12` [Example 174], for which the EC50 is < 0.1 µM and the Emax was determined as 228%.

Turning to `CC[C@H]1[C@@H](O)[C@@H]2[C@H](CC[C@]3(C)[C@@H]([C@H](C)CCOC(=O)N[C@@H](C)C4CC4)CC[C@@H]23)[C@@]2(C)CC[C@@H](O)C[C@@H]12` [Example 175], the EC50 is 0.1 to 1 µM and the Emax came out at 210%.

Regarding `CC[C@H]1[C@@H](O)[C@@H]2[C@H](CC[C@]3(C)[C@@H]([C@H](C)CCOC(=O)NC(C(C)C)C(C)C)CC[C@@H]23)[C@@]2(C)CC[C@@H](O)C[C@@H]12` [Example 176], the half-maximal effective concentration (EC50) lay within 1 to 10 µM and the Emax is 368%.

For the compound `CC[C@H]1[C@@H](O)[C@@H]2[C@H](CC[C@]3(C)[C@@H]([C@H](C)CCOC(=O)NCCC4CC4)CC[C@@H]23)[C@@]2(C)CC[C@@H](O)C[C@@H]12` [Example 177], the EC50 fell in the range of 0.1 to 1 µM and the Emax turned out to be 460%.

Consider `CC[C@H]1[C@@H](O)[C@@H]2[C@H](CC[C@]3(C)[C@@H]([C@H](C)CCOC(=O)N4CCC(N5CCCCC5)CC4)CC[C@@H]23)[C@@]2(C)CC[C@@H](O)C[C@@H]12` [Example 178], for which the 50% effective concentration (EC50) is 0.1 to 1 µM and the Emax turned out to be 196%.

As to `CC[C@H]1[C@@H](O)[C@@H]2[C@H](CC[C@]3(C)[C@@H]([C@H](C)CCOC(=O)N(CCO)CCO)CC[C@@H]23)[C@@]2(C)CC[C@@H](O)C[C@@H]12` [Example 179], the 50% effective concentration (EC50) was 0.1 to 1 µM and the Emax is 333%.

With `CC[C@H]1[C@@H](O)[C@@H]2[C@H](CC[C@]3(C)[C@@H]([C@H](C)CCOC(=O)N4CCCCC4CO)CC[C@@H]23)[C@@]2(C)CC[C@@H](O)C[C@@H]12` (stereo partly shown) [Example 180], the EC50 was in the range of 0.1 to 1 µM and the Emax came out at 390%.

As to `CC[C@H]1[C@@H](O)[C@@H]2[C@H](CC[C@]3(C)[C@@H]([C@H](C)CCOC(=O)N4CC[C@H](O)C4)CC[C@@H]23)[C@@]2(C)CC[C@@H](O)C[C@@H]12` [Example 181], the concentration for a half-maximal effect (EC50) was < 0.1 µM and the Emax stood at 382%.

`CC[C@H]1[C@@H](O)[C@@H]2[C@H](CC[C@]3(C)[C@@H]([C@H](C)CCOC(=O)N4C[C@@H](C)O[C@@H](C)C4)CC[C@@H]23)[C@@]2(C)CC[C@@H](O)C[C@@H]12` [Example 182]: the EC50 was 0.1 to 1 µM and the Emax was found to be 419%.

`CC[C@H]1[C@@H](O)[C@@H]2[C@H](CC[C@]3(C)[C@@H]([C@H](C)CCOC(=O)N4CCC(CO)(CCl)CC4)CC[C@@H]23)[C@@]2(C)CC[C@@H](O)C[C@@H]12` [Example 183]: the EC50 is < 0.1 µM and the Emax came out at 451%.

Regarding `CC[C@H]1[C@@H](O)[C@@H]2[C@H](CC[C@]3(C)[C@@H]([C@H](C)CCOC(=O)N4CCCC4c4cccc(Cl)c4)CC[C@@H]23)[C@@]2(C)CC[C@@H](O)C[C@@H]12` (stereo partly shown) [Example 184], the half-maximal effective concentration (EC50) lay within 1 to 10 µM and the Emax amounted to 213%.
